From article PMC8170132, “Kinetics of Abacavir-Induced Remodelling of the Major Histocompatibility Complex Class I Peptide Repertoire” (Frontiers in Immunology, 2021)

Key:
HLA-B*57:01 [1] = target: T1, HLA-B*57:01 (Homo sapiens, UniProt P01889, D201E/D98Y/E176V/E187L/E204Q/E69M/E70A/G107R/I90N/K202T/L105A/L119I/N104I/N87E/Q89R/Q94S/R106L/R155S/R180L/R86G/S101N/S121V/S35A/S48A/T118I/V36M/Y140S/Y91M); conditions: ref [20]–[22]; cited from earlier work
HLA-B*57:01 [2] = target: T1, HLA-B*57:01; conditions: 721.220.B*57:01 cells, 60 µM abacavir, 37 and 50°C vs 4°C
[3] = system: abacavir responsive CD8+ T cells; assay: Intracellular cytokine staining of abacavir responsive CD8+ T cells stimulated with abacavir treated C1R.B*57:01; assay type: cell-based, human; conditions: 35 µM abacavir 0-30 h, three T cell lines
Experimental: Stimulator PBMCs were subsequently added to responder PBMC at a 2:1 responder:stimulator ratio and the final volume of culture made up to 2 ml with RF10. Cells were incubated at 37°C, 5% CO2 and fed with fresh media as required to sustain cell outgrowth. On day 5 of culture, cell media were supplemented with rhIL-2 (Cetus) at 20 U/ml and maintained at this concentration thereafter. […] C1R.B*57:01 were mixed with 1 × 10^5 T cells at a 1:2 ratio in a volume of 200 μl fresh RH10. […] Sigma-Aldrich) was added to a final concentration of 10 μg/ml and incubated a further 4 h. Cells were stained with anti-CD4-PE [clone RPA-T4, Becton Dickinson (BD) Biosciences, USA] and anti-CD8-PerCP-Cy™5.5 (clone SK1, BD Biosciences, 25 min, 4°C), fixed with 1% PFA/PBS (20 min, room temperature), washed in PBS, then permeabilised with 0.3% saponin (Sigma-Aldrich) in PBS containing anti-Interferon-γ (IFNγ)-PE-Cy™7 (clone B27, BD Biosciences) and anti-tumour necrosis factor (TNF)-PE-V450 (clone Mab11, BD Biosciences), and acquired by flow cytometry using an LSR II flow cytometer and BD […]™ software (BD). The percentage of CD8^+ T cells producing IFNγ and TNF was determined via analysis using FlowJo software (BD).

HLA-B*57:01 [4] = target: T1, HLA-B*57:01; assay: LC-MRM-MS quantitation of HLA ligands and co-purified abacavir from abacavir treated C1R.B*57:01 cells; assay type: cell-based; conditions: C1R.B*57:01, 35 µM abacavir
C1R.B*57:01 cells = assay: Cellular proteome comparison by label free quantitation LC-MS/MS; assay type: cell-based, human; conditions: 35 µM abacavir, 48 h, 2,306 proteins, 5% FDR
HLA-B*57:01 [5] = target: T1, HLA-B*57:01; conditions: 721.220.B*57:01 +/- tapasin, 60 µM abacavir 20 hrs, Brefeldin A 0-6 hrs
HLA-B*57:01 [6] = target: T1, HLA-B*57:01; conditions: 60 µM abacavir
HLA-B*57:01fos [7] = target: T2, HLA-B*57:01fos (Homo sapiens, UniProt P01889, D201E/D98Y/E176V/E187L/E204Q/E69M/E70A/G107R/I90N/K202T/L105A/L119I/N104I/N87E/Q89R/Q94S/R106L/R155S/R180L/R86G/S101N/S121V/S35A/S48A/T118I/V36M/Y140S/Y91M); assay: Fluorescence polarisation dissociation rate measurements; assay type: binding; conditions: for Effect of abacavir on dissociation of the peptide from HLA-B*57:01fos: 60 µM abacavir with competing peptide; for Half life (hours) of dissociation from HLA-B*57:01fos, Comp+Abacavir / Half life (hours) of dissociation from HLA-B*57:01fos, Comp+Tapasin / Half life (hours) of dissociation from HLA-B*57:01fos, Comp+Tapasin+Abacavir: as Comp; for Half life (hours) of dissociation from HLA-B*57:01fos, Comp+Abacavir: plus 60 µM abacavir; for Half life (hours) of dissociation from HLA-B*57:01fos, Comp+Abacavir / Half life (hours) of dissociation from HLA-B*57:01fos, Comp+Tapasin / Half life (hours) of dissociation from HLA-B*57:01fos, Comp+Tapasin+Abacavir / Half life (hours) of dissociation from HLA-B*57:01fos, Comp: fluorescence polarisation, 25°C, one-phase decay, plateau 50 mP (unconstrained for RVD), 3-4 replicates; for Half life (hours) of dissociation from HLA-B*57:01fos, Comp+Tapasin: plus conjugated tapasin-jun-ERp57 C60A (mostly 0.254 µM); for Half life (hours) of dissociation from HLA-B*57:01fos, Comp+Tapasin+Abacavir: plus tapasin-jun-ERp57 C60A and 60 µM abacavir; for Half life (hours) of dissociation from HLA-B*57:01fos, Comp: PBS + 0.5 mg/ml bovine-gamma-globulin, 20 fold excess human β2m, excess unlabelled competing peptide only
T2 construct: Fos leucine zipper (C); made in house
Experimental: (§1) Peptide loaded HLA-B*57:01fos complexes were obtained as described ([50]) by refolding solubilised inclusion bodies of HLA-B*57:01fos heavy chains with human β 2m and UV-labile HLA-B57-conditional peptide ligand.
(§2) Fluorescence polarisation measurements were taken using a SpectraMax i3x Multi-Mode Microplate Reader (Molecular Devices) with rhodamine detection cartridge. All experiments were conducted at 25°C and used PBS supplemented with 0.5 mg/ml bovine-gamma-globulin (Sigma), and a 20 fold molar excess of human β 2m (Fitzgerald) in a volume of 60 µl. Binding of TAMRA-labelled peptides is reported in millipolarisation units (mP) and is obtained from the equation mP = 1,000 × (S – G × P)/(S + G × P), where S and P are background subtracted fluorescence count rates (S = polarisation emission filter is parallel to the excitation filter; P = polarisation emission filter is perpendicular to the excitation filter) and G (grating) is an instrument and assay dependent factor.
HLA-B*57:01fos molecules were UV exposed and then allowed to bind fluorescent peptides overnight at room temperature. Florescence polarisation measurements were taken after the addition of excess non-labelled competitor peptide (otherwise identical to the labelled peptide) in the absence or presence of 60 µM abacavir or conjugated tapasin-jun-ERp57 C60A proteins. […] Most experiments used 0.55 µM HLA-B*57:01fos molecules, but some experiments involved different preparations of HLA-B*57:01fos which required higher concentrations of HLA-B*57:01fos, up to a maximum of 1.38 µM HLA-B*57:01fos, to achieve equivalent polarisation levels.
Supplementary Table 2. Dissociation rates of TAMRA-labelled peptides from HLA-B*57:01fos molecules. The rates at which the indicated peptides dissociated from HLA-B*57:01fos molecules in the presence of excess unlabelled competing peptide (“Comp”), abacavir and tapasin (data shown in figure 7) was measured by Graphpad Prism v9.1.0. The dissociation rates were calculated by performing non-linear regression, using the one-phase decay method, with plateaus constrained to be equal to 50 mP (apart from being unconstrained for RVD peptide). The number of experimental replicates, and the standard deviation in the measured dissociation rates across the replicates is also presented.

HLA-B*57:01fos [8] = target: T2, HLA-B*57:01fos; assay: Fluorescence polarisation association rate measurements; assay type: binding; conditions: 25°C; for Effect of abacavir on binding of fluorescent peptide to HLA-B*57:01fos: 60 µM abacavir; for Effect of tapasin on binding of fluorescent peptide to HLA-B*57:01fos: tapasin-jun or tapasin-jun ERp57 C60A conjugate
Experimental: as §1, §2
Peptide-receptive HLA-B*57:01fos were obtained by exposing HLA-B*57:01fos complexes loaded with UV labile conditional peptide ligand to ~360 nm light for 20 min at 4°C (“UV exposed” hereafter). The binding of fluorescent peptides to UV exposed HLA-B*57:01fos was monitored in the absence or presence of excess (60 µM) abacavir or tapasin-jun or tapasin-jun ERp57 C60A conjugate. […] Most experiments used 0.55 µM HLA-B*57:01fos molecules, but a minority of experiments involved different preparations of HLA-B*57:01fos which required higher concentrations of HLA-B*57:01fos, up to a maximum of 3.18 µM HLA-B*57:01fos, to achieve equivalent polarisation levels.

HLA-B*15:02 = HLA-B*15:02 (Homo sapiens, UniProt P01889, A329T/A93T/A95T/C349S/D201E/D98Y/E187L/E204Q/E69M/E70A/H137Y/K202T/L119I/Q94N/R155S/R180L/S121R/S35A/S48A/T118I/V306I/V36M/Y140S/Y91S); conditions: ref [20]–[22]; cited from earlier work
HLA-B*58:01 = HLA-B*58:01 (Homo sapiens, UniProt P01889, A329T/C349S/D201E/D98Y/E176V/E187L/E204Q/E69T/G107R/I218V/I90N/K202T/L105A/L119I/N104I/N87E/Q89R/Q94S/R106L/R155S/R180L/R86G/S101N/S121R/S35A/S48A/T118I/V127L/V306I/V36M/Y140S/Y91M); conditions: ref [20]–[22]; cited from earlier work

Effect of abacavir on dissociation of the peptide from HLA-B*57:01fos (HLA-B*57:01fos [7])	Half life (hours) of dissociation from HLA-B*57:01fos, Comp+Abacavir (HLA-B*57:01fos [7]) [h]	Half life (hours) of dissociation from HLA-B*57:01fos, Comp+Tapasin (HLA-B*57:01fos [7]) [h]	Half life (hours) of dissociation from HLA-B*57:01fos, Comp+Tapasin+Abacavir (HLA-B*57:01fos [7]) [h]	Half life (hours) of dissociation from HLA-B*57:01fos, Comp (HLA-B*57:01fos [7]) [h]	Effect of tapasin on binding of fluorescent peptide to HLA-B*57:01fos (HLA-B*57:01fos [8]; fluorescence polarisation)	Compound	Effect of abacavir on binding of fluorescent peptide to HLA-B*57:01fos (HLA-B*57:01fos [8]; fluorescence polarisation)	also measured
						Nc1nc(NC2CC2)c2ncn([C@H]3C=C[C@@H](CO)C3)c2n1 [abacavir]		Odds ratio of hypersensitivity reaction with HLA-B*57:01 (HLA-B*57:01 [1]): > 500; Effect on thermal stability profile of HLA-B*57:01, tapasin absent (HLA-B*57:01 [2]): no significant impact on the thermal stability profile; Immunogenicity of abacavir treated antigen presenting cells (IFNγ and/or TNF production by CD8+ T cells) [3]: increase in antigen presenting cell immunogenicity was observed over the first 12 h; Time of abacavir treatment after which changes in the immunopeptidome were evident (HLA-B*57:01 [4]): 2 h; Co-purification of HLA-B*57:01-bound abacavir over the time course (HLA-B*57:01 [4]; 0-16 h): increasing amounts; Change in protein expression of the cellular proteome (C1R.B*57:01 cells): no protein showed significant changes in expression; Effect on expression level and stability of cell surface HLA-B*57:01 (HLA-B*57:01 [5]): did not significantly alter either the expression level or the stability; Effect on HLA-B*57:01 maturation (Endo-H resistance), tapasin-reconstituted (HLA-B*57:01 [6]; 721.220.B*57:01.tapasin cells): unaffected; Effect on HLA-B*57:01 maturation (Endo-H resistance), tapasin absent (HLA-B*57:01 [6]; 721.220.B*57:01 cells): did not significantly alter this pattern of biogenesis
modestly enhanced	0.26	0.35	0.26	0.31		RVDPAK*GLFYF	enhanced by abacavir during the first hour	Rate of dissociation from HLA-B*57:01fos (in words) (HLA-B*57:01fos [7]; competing peptide only): minutes; Effect of combined abacavir and tapasin on binding of fluorescent peptide to HLA-B*57:01fos (HLA-B*57:01fos [8]; 60 µM abacavir + tapasin-jun, fluorescence polarisation): tapasin partially mitigated this effect; Intrinsic binding of fluorescent peptide to UV exposed HLA-B*57:01fos (HLA-B*57:01fos [8]; peptide alone, fluorescence polarisation (mP)): poor binding
						NC(=O)N1c2ccccc2C=Cc2ccccc21 [carbamazepine]		Odds ratio of hypersensitivity reaction with HLA-B*15:02 (HLA-B*15:02): > 500
pronounced decrease in the dissociation	51.83	1.06	2.47	3.27	only slightly enhanced binding	KVFK*LQTSL		Tapasin dependent enhancement of dissociation (HLA-B*57:01fos [7]; tapasin-jun-ERp57 C60A with competing peptide): significant
						Oc1ncnc2[nH]ncc12 [allopurinol]		Odds ratio of hypersensitivity reaction with HLA-B*58:01 (HLA-B*58:01): > 500
pronounced decrease in the dissociation	71.63	2.04	33.59	2.34	only slightly enhanced binding	ATFK*GIVRAI	less pronounced	
